Data published in patent US20230330251A1, “METHODS FOR TREATING CANCERS WITH ANTIBODY DRUG CONJUGATES (ADC) THAT BIND TO 191P4D12 PROTEINS” (AGENSYS, INC., priority 2020, published 2023).

Tested on: patients with previously treated locally advanced or metastatic urothelial carcinoma (la/mUC) with poor prognostic factors
Test: EV-301 subgroup analyses of OS, PFS and ORR incl. hard-to-treat subgroups (age ≥65 years, liver metastasis, primary upper tract disease, CPI nonresponse)
Type: in vivo, human
Conditions: for ORR, EV vs SC Absolute Difference / Overall response rate (ORR), % / Overall response rate (ORR), n/N: Response-Evaluable Population
Experimental: Using FAS, the analysis for OS, PFS1 and ORR were repeated by ECOG PS (0 vs 1), regions of the world, and liver metastasis respectively.
In addition, subgroup analyses were conducted for selected endpoints to determine whether the treatment effect is consistent.
Subgroup analyses were prespecified for the primary endpoint of OS and secondary endpoints of investigator-assessed progression-free survival (PFS) and overall response rate (ORR) per RECIST v1.1. Kaplan-Meier analyses compared OS and PFS between treatments for selected hard-to-treat subgroups as follows: age ≥65 years, presence of liver metastasis, primary upper tract disease, and checkpoint inhibitor (CPI) nonresponse. ORR and safety were also evaluated within subgroups. The Cox proportional hazards model was used to estimate hazard ratios. The Cochran-Mantel-Haenszel test was used to compare response and disease control rates between groups.

enfortumab vedotin
Median OS (Age ≥65 yrs): 14.32 mo | Median PFS (Age ≥65 yrs): 5.65 mo | OS, EV vs SC HR (Age ≥65 yrs): 0.745 | Overall survival (OS) Events, % (Age ≥65 yrs): (44) % | Overall survival (OS) Events, n/N (Age ≥65 yrs): 85/193 | PFS, EV vs SC HR (Age ≥65 yrs): 0.616 | Progression-free survival (PFS) Events, % (Age ≥65 yrs): (65) % | Progression-free survival (PFS) Events, n/N (Age ≥65 yrs): 126/193 | ORR, EV vs SC Absolute Difference (Age ≥65 yrs): 20.9% | Overall response rate (ORR), % (Age ≥65 yrs): 40.8% | Overall response rate (ORR), n/N (Age ≥65 yrs): 75/184 | Median OS (CPI non-responder): 11.63 mo | Median PFS (CPI non-responder): 5.42 mo | OS, EV vs SC HR (CPI non-responder): 0.757 | Overall survival (OS) Events, % (CPI non-responder): (48) % | Overall survival (OS) Events, n/N (CPI non-responder): 100/207 | PFS, EV vs SC HR (CPI non-responder): 0.697 | Progression-free survival (PFS) Events, % (CPI non-responder): (71) % | Progression-free survival (PFS) Events, n/N (CPI non-responder): 146/207 | ORR, EV vs SC Absolute Difference (CPI non-responder): 22.3% | Overall response rate (ORR), % (CPI non-responder): 39.7% | Overall response rate (ORR), n/N (CPI non-responder): 79/199 | Median OS (Presence of Liver metastasis): 9.63 mo | Median PFS (Presence of Liver metastasis): 4.14 mo | OS, EV vs SC HR (Presence of Liver metastasis): 0.660 | Overall survival (OS) Events, % (Presence of Liver metastasis): (57) % | Overall survival (OS) Events, n/N (Presence of Liver metastasis): 53/93 | PFS, EV vs SC HR (Presence of Liver metastasis): 0.597 | Progression-free survival (PFS) Events, % (Presence of Liver metastasis): (76) % | Progression-free survival (PFS) Events, n/N (Presence of Liver metastasis): 71/93 | ORR, EV vs SC Absolute Difference (Presence of Liver metastasis): 24.7% | Overall response rate (ORR), % (Presence of Liver metastasis): 35.5% | Overall response rate (ORR), n/N (Presence of Liver metastasis): 33/93 | Median OS (Primary upper tract disease): 12.62 mo | Median PFS (Primary upper tract disease): 5.62 mo | OS, EV vs SC HR (Primary upper tract disease): 0.848 | Overall survival (OS) Events, % (Primary upper tract disease): (45) % | Overall survival (OS) Events, n/N (Primary upper tract disease): 44/98 | PFS, EV vs SC HR (Primary upper tract disease): 0.716 | Progression-free survival (PFS) Events, % (Primary upper tract disease): (64) % | Progression-free survival (PFS) Events, n/N (Primary upper tract disease): 63/98 | ORR, EV vs SC Absolute Difference (Primary upper tract disease): 24.8% | Overall response rate (ORR), % (Primary upper tract disease): 43.9% | Overall response rate (ORR), n/N (Primary upper tract disease): 43/98 | ORR in hard-to-treat subgroups, EV compared to SC (across all subgroups): higher | PFS in hard-to-treat subgroups, EV compared to SC (across all subgroups): longer | OS in hard-to-treat subgroups, EV vs SC (liver metastasis, CPI nonresponsive, primary upper tract disease, poor prognostic factors, listed as EV): consistently longer | progression-free survival benefit in subgroup analyses (prespecified key subgroups, intention-to-treat population): present across multiple subgroups
